Reference: patent US8389268B2, “Method and culture medium for enhanced detection of mycobacterium” (priority 2009, dated 2013)
Values joined by “and” are separate entries in the source; they are usually repeats but may differ in a detail not shown here. Equal entries are not always repeated. Where two headings read alike, the source gives them in different places.

Legend:
MTB 25177 = test: Time to detection (TTD) of growth in BacT/ALERT MP culture bottles; assay type: cell-based, Mycobacterium tuberculosis; settings: for # Positive: of 4.0 tested
Method: For Growth Performance, […] organisms (M. tuberculosis, M. avium, and M. intracellulare) were tested. The conventional MAS formulation was used for these experiments. The new supplement with/without FA supplementation and conventional/old RF were used to rehydrate a lyophilized powder of the conventional or old MB BacT antibiotic supplement (conventional/old MAS) (bioMérieux, Inc.).
For the new supplement, the new, autoclavable BacT/ALERT® MP bottle (as described hereinabove) was used and for conventional/old RF, the conventional/old MP bottle was used. Before the inoculation of new and conventional/old MP culture bottles (bioMérieux, Inc.) with mycobacteria cultures, 0.5 ml of new supplement with/without FA or 0.5 ml of conventional/old RF were added to one set of the BacT/ALERT® MP culture bottles. The rehydrated conventional MAS (using new supplement with/without FA and conventional/old RF) was added to the second set of MP culture bottles. The growth (as TTD of growth) was compared in these bottles for Mycobacterium avium, Mycobacterium intracellulare and Mycobacterium tuberculosis cultures after inoculating with approximately 0.5×10^3 CFU/ml.
For the new MAS formulas and NS, a new, autoclaved BacT/ALERT® MP bottle (as described hereinabove) was used and for conventional/old RF, conventional/old MP bottle (bioMérieux, Inc.) was used. […] The conventional MAS (using conventional/old RF) and new MAS formulas (using NS) were added to the second set of MP culture bottles.
The mycobacteria inoculum was 0.5×10^3 CFU/ml.

M. intracellulare 13950 = test: as above; assay type: cell-based, Mycobacterium intracellulare; settings: for # Positive: of 4.0 tested
M. fortuitum 6841 = test: as above; settings: for # Positive / # Positives: of 4.0 tested
M. scrofulaceum 19981 = test: as above; assay type: cell-based, Mycobacterium scrofulaceum
MTB 27294 = test: as above; assay type: cell-based, Mycobacterium tuberculosis; settings: for # Positive: of 4.0 tested
mycobacteria = assay type: cell-based, Mycobacterium species
M. avium 25291 = test: Time to detection (TTD) of growth in BacT/ALERT MP culture bottles; assay type: cell-based, Mycobacterium avium; settings: for # Positive: of 4.0 tested
M. kansasii 12478 = test: as above; assay type: cell-based, Mycobacterium kansasii; settings: for # Positive / # Positives: of 4.0 tested
[1] = test system: contaminating respiratory flora (CRF); test: Suppression of contaminating respiratory flora (CRF), growth or no growth in BacT/ALERT MP culture bottles; assay type: cell-based, gram positive or gram negative bacterial and yeast cultures; settings: screen of various drugs

For `CC1(C)S[C@@H]2[C@H](NC(=O)[C@H](NC(=O)N3CCNC3=O)c3ccccc3)C(=O)N2[C@H]1C(=O)O` [AZL, azlocillin], the “Average TTD” value (MTB 25177; Table 4, Media + AZL 12) was 22.4 days, the “# Positive” value (MTB 25177; Table 4, Media + AZL 12) was 4.0 and the “Average TTD” value (MTB 25177; Table 4, Media + AZL 24) was 23.8 days. The “# Positive” value (MTB 25177; Table 4, Media + AZL 24) was 2.0, the “Average TTD” value (MTB 25177; Table 4, Media + AZL 48) was 24.8 days and the “# Positive” value (MTB 25177; Table 4, Media + AZL 48) was 2.0. For the same compound, the “Average TTD” value (M. intracellulare 13950; Table 4, Media + AZL 12) was 16.4 days, the “# Positive” value (M. intracellulare 13950; Table 4, Media + AZL 12) was 4.0 and the “Average TTD” value (M. intracellulare 13950; Table 4, Media + AZL 24) was 19.8 days. The “# Positive” value (M. intracellulare 13950; Table 4, Media + AZL 24) was 4.0, the “Average TTD” value (M. intracellulare 13950; Table 4, Media + AZL 48) was 20.0 days and the “# Positive” value (M. intracellulare 13950; Table 4, Media + AZL 48) was 2.0. The “Average TTD” value (M. fortuitum 6841; Table 4, Media + AZL 12) was 4.0 days, the “# Positive” value (M. fortuitum 6841; Table 4, Media + AZL 12) was 4.0 and the “Average TTD” value (M. fortuitum 6841; Table 4, Media + AZL 24) was 4.2 days. For the same compound, the “# Positive” value (M. fortuitum 6841; Table 4, Media + AZL 24) was 4.0, the “Average TTD” value (M. fortuitum 6841; Table 4, Media + AZL 48) was 4.1 days and the “# Positive” value (M. fortuitum 6841; Table 4, Media + AZL 48) was 4.0. The “Average TTD” value (M. scrofulaceum 19981; Table 4, Media + AZL 12) was 24.2 days, the “# Positive” value (M. scrofulaceum 19981; Table 4, Media + AZL 12, of 4.0 tested) was 2.0 and the “Average TTD” value (M. scrofulaceum 19981; Table 4, Media + AZL 48) was 21.7 days. The “# Positive” value (M. scrofulaceum 19981; Table 4, Media + AZL 48, of 3.0 tested) was 1.0, the “Average TTD” value (MTB 27294; Table 4, Media + AZL 12) was 15.4 days and the “# Positive” value (MTB 27294; Table 4, Media + AZL 12) was 4.0. For the same compound, the “Average TTD” value (MTB 27294; Table 4, Media + AZL 24) was 16.0 days, the “# Positive” value (MTB 27294; Table 4, Media + AZL 24) was 4.0 and the “Average TTD” value (MTB 27294; Table 4, Media + AZL 48) was 15.4 days. The “# Positive” value (MTB 27294; Table 4, Media + AZL 48) was 4.0, the “effect on growth (as determined by TTD of growth)” value (mycobacteria) was “negative effect on the growth” and the “Average TTD” value (M. avium 25291; Table 4, Media + AZL 12) was 20.1 days. For the same compound, the “# Positive” value (M. avium 25291; Table 4, Media + AZL 12) was 4.0, the “Average TTD” value (M. avium 25291; Table 4, Media + AZL 24) was 22.2 days and the “# Positive” value (M. avium 25291; Table 4, Media + AZL 24) was 4.0. For the same compound, the “Average TTD” value (M. avium 25291; Table 4, Media + AZL 48) was 21.2 days, the “# Positive” value (M. avium 25291; Table 4, Media + AZL 48) was 4.0 and the “Average TTD” value (M. kansasii 12478; Table 4, Media + AZL 12) was 18.5 days. The “# Positive” value (M. kansasii 12478; Table 4, Media + AZL 12) was 3.0, the “Average TTD” value (M. kansasii 12478; Table 4, Media + AZL 24) was 18.9 days and the “# Positive” value (M. kansasii 12478; Table 4, Media + AZL 24) was 4.0. The “Average TTD” value (M. kansasii 12478; Table 4, Media + AZL 48) was 20.5 days and the “# Positive” value (M. kansasii 12478; Table 4, Media + AZL 48) was 1.0.

With `N=C(N)NCCC[C@H](N)C(=O)O` [L-arginine] the “reduction in TTD” value (mycobacteria) was “did not show a reduction in TTD”.

For `O=C(O)C[C@H](O)C(=O)O` [L-malate], the “reduction in TTD” value (mycobacteria) was “did not show a reduction in TTD”.

With `CN[C@H](CC(C)C)C(=O)N[C@H]1C(=O)N[C@@H](CC(N)=O)C(=O)N[C@H]2C(=O)N[C@H]3C(=O)N[C@H](C(=O)N[C@H](C(=O)O)c4cc(O)cc(O)c4-c4cc3ccc4O)[C@H](O)c3ccc(c(Cl)c3)Oc3cc2cc(c3O[C@@H]2O[C@H](CO)[C@@H](O)[C@H](O)[C@H]2O[C@H]2C[C@](C)(N)[C@H](O)[C@H](C)O2)Oc2ccc(cc2Cl)[C@H]1O` [VAN, vancomycin] the “# Positives” value (MTB 25177) was 2.0, the “Average TTD” value (MTB 25177) was 23.7 days and the “# Positives” value (M. intracellulare 13950) was 4.0. The “Average TTD” value (M. intracellulare 13950) was 9.4 days and 9.7 days and 10.3 days, the “Average TTD” value (M. fortuitum 6841; Table 5, Media + VAN 1.75) was 4.7 days and the “# Positives” value (M. fortuitum 6841; Table 5, Media + VAN 1.75) was 4.0. For the same compound, the “Average TTD” value (M. fortuitum 6841; Table 5, Media + VAN 3.5) was 4.1 days, the “# Positives” value (M. fortuitum 6841; Table 5, Media + VAN 3.5) was 4.0 and the “Average TTD” value (M. fortuitum 6841; Table 5, Media + VAN 7) was 4.8 days. The “# Positives” value (M. fortuitum 6841; Table 5, Media + VAN 7) was 4.0, the “Average TTD” value (M. scrofulaceum 19981; Table 5, Media + VAN 1.75) was 14.2 days and the “# Positives” value (M. scrofulaceum 19981; Table 5, Media + VAN 1.75, of 4.0 tested) was 4.0. The “Average TTD” value (M. scrofulaceum 19981; Table 5, Media + VAN 3.5) was 14.0 days, the “# Positives” value (M. scrofulaceum 19981; Table 5, Media + VAN 3.5, of 4.0 tested) was 4.0 and the “Average TTD” value (M. scrofulaceum 19981; Table 5, Media + VAN 7) was 15.3 days. For the same compound, the “# Positives” value (M. scrofulaceum 19981; Table 5, Media + VAN 7, of 1.0 tested) was 1.0, the “# Positives” value (MTB 27294) was 4.0 and the “Average TTD” value (MTB 27294) was 16.3 days and 16.0 days and 18.3 days. The “effect on growth (as determined by TTD of growth)” value (mycobacteria) was “negative effect on the growth”, the “# Positives” value (M. avium 25291) was 4.0 and 3.0 and the “Average TTD” value (M. avium 25291) was 20.6 days and 21.2 days. For the same compound, the “# Positives” value (M. kansasii 12478; Table 5, Media + VAN 1.75) was 4.0, the “Average TTD” value (M. kansasii 12478; Table 5, Media + VAN 3.5) was 21.5 days and the “# Positives” value (M. kansasii 12478; Table 5, Media + VAN 3.5) was 2.0.

In the case of `C[C@@H]1O[C@@H]1P(=O)(O)O` [fosfomycin], the “ability to suppress contaminating respiratory flora (CRF)” value [1] is reported as “best choice for suppression of CRF”.

`CC(O)C(=O)O` (centres unmarked) [lactate] was tested, and the “reduction in TTD” value (mycobacteria) was “did not show a reduction in TTD”.

With `O=C(O)CC(=O)C(=O)O` [oxaloacetic acid] the “reduction in TTD” value (mycobacteria) was “did not show a reduction in TTD”.

With `O=C(O)CCC(=O)C(=O)O` [α-keto glutarate, α-ketoglutarate] the “Avg. TTD” value (M. intracellulare 13950) was 9.0 days and 8.8 days, the No. of positives (M. intracellulare 13950) was 3 and the “Avg. TTD” value (MTB 27294) was 14.3 days and 13.9 days. The No. of positives (MTB 27294) was 3, the “reduction in time to detection (TTD) of growth” value (mycobacteria) was “approximate two days reduction” and the “Avg. TTD” value (M. avium 25291) was 13.5 days and 13.8 days. For the same compound, the No. of positives (M. avium 25291) was 3.
